Test results: US20240246955A1, “TROPOMYOSIN RECEPTOR KINASE (TRK) DEGRADATION COMPOUNDS AND METHODS OF USE” (CULLGEN (SHANGHAI), INC., priority 2021, published 2024)

What was measured:
[1] = test system: KM12 cells; experiment: KM12 cell viability assay (CellTiter-Glo); format: cell-based; conditions: for IC50: Homo sapiens, 72 h, KM12 cells, 3 days, CellTiter-Glo; for viability of KM12 cells: 11-point 3-fold serial dilution, 3 days (FIG. 3)
Experimental: The kinase activity of TRK is known to play important roles in tumors expressing TRK-fusion proteins, as TRK kinase inhibitors compromise cell proliferation, survival, and induce marked clinical responses (Amatu et al., 2016; Drilon et al., 2018; Drilon et al., 2017; Khotskaya et al., 2017). KM12 cells seeded in 96-well plates were treated with heterobifunctional compounds following a 11-point 3-fold serial dilution. Three days after treatment, cell viability was determined using the CellTiter-Glo kit, and normalized to the mean values of 3 replicates of untreated cells. Dose-dependent response was analyzed following the least-squares non-linear regression method using the GraphPad Prism software. Each data point in the figure represents the mean values of three technical replicates ±standard deviation.
KM12 cells seeded in 96-well plates were treated with heterobifunctional compounds following a 11-point 3-fold serial dilution for 3 days.
KM12, TRKA G595R mutated KM12, HEL, and other cells were cultured at 37° C. with 5% CO2 in DMEM or RPMI 1640 Medium supplemented with 10% fetal bovine serum. Cells were authenticated using the short tandem repeat (STR) assays. Mycoplasma test results were negative.
Cells were seeded at a density of 5000 cells per well in 96-well assay plates and treated with test compounds following a 11-point 3-fold serial dilution. Three days later, cell viability was determined using the CellTiter-Glo assay kit (Promega) according to the manufacturer's instructions. The dose-response curves were determined and IC50 values were calculated using the GraphPad Prism software following a nonlinear regression (least squares fit) method.

[2] = target: T1, TPM3-TRKA fusion protein (Homo sapiens, UniProt P04629); experiment: TPM3-TRKA degradation in KM12 cells (Western blot); format: cell-based; conditions: 16 hours, TRK protein, immunoblot; for inhibition at 0.01 µM: 10 nM; for inhibition at 0.1 µM: 100 nM
T1 construct: TPM3 (N-terminal part of tropomyosin alpha-3, natural fusion partner); endogenous in cells; host or cells: KM12 colon cancer cells; the other entry of the earlier key: TPM3 (P06753, Tropomyosin alpha-3 chain)
T1 sequence (P04629 with tags, fused parts or gaps): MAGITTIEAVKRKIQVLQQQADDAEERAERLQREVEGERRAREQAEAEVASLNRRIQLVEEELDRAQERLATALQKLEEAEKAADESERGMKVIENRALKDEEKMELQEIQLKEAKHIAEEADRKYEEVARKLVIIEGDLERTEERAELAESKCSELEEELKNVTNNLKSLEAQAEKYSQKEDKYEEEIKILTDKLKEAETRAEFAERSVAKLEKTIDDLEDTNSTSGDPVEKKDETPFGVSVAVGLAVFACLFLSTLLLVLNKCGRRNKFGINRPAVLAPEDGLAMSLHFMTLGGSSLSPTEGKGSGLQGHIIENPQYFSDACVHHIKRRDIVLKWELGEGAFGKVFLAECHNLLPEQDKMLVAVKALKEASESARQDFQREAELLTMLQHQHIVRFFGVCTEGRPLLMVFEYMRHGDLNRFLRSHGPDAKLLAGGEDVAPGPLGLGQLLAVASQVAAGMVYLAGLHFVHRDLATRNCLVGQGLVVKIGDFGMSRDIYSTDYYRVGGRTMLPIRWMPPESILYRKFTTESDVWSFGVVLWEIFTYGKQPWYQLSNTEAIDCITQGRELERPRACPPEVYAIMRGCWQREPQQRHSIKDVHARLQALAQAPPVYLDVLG
Experimental: Specific exemplary heterobifunctional compounds were characterized in KM12 cells. KM12 cells that express TPM3-TRKA fusion protein were treated with 10 nM or 100 nM heterobifunctional compounds disclosed herein or their corresponding warheads/inhibitors for 16 hours. Cells were collected, lysed and subject to immunoblotting using an antibody specific to TRK proteins.
KM12 cells were treated with heterobifunctional compounds at 10 nM or 100 nM for 16 hours.
Cultured cells were washed with cold PBS once and lysed in cold RIPA buffer supplemented with protease inhibitors and phosphatase inhibitors (Beyotime Biotechnology). The solutions were then incubated at 4° C. for 30 minutes with gentle agitation to fully lyse cells. Cell lysates were centrifuged at 13,000 rpm for 10 minutes at 4° C. and pellets were discarded. Total protein concentrations in the lysates were determined by BCA assays (Beyotime Biotechnology). Cell lysates were mixed with Laemmli loading buffer to 1× and heated at 99° C. for 5 min. Proteins were resolved on SDS-PAGE and visualized by chemiluminescence. Images were taken by a ChemiDoc MP Imaging system (Bio-Rad). Protein bands were quantitated using the software provided by Bio-Rad.
The percentage of TRK protein degradation of each compound at 10 nM and 100 nM was determined in KM12 cells as described in Methods. The percentage of degradation of each compound was indicated in the following categories: N/A: data not available; −: no degradation; +: degradation less than 50%; ++: degradation equal or greater than 50% but less than […]; +++: degradation equal or greater than 80%.

inhibition at 0.01 µM [2] [%] | inhibition at 0.1 µM [2] [%] | Structure (SMILES) | IC50 [1] [nM] | viability of KM12 cells [1]
> 80 | > 80 | COCCN1C[C@@H](NC(=O)Nc2c(C)c(-c3cnc(N4CCN(C(=O)CNc5cccc6c5C(=O)N(C5CCC(=O)NC5=O)C6=O)CC4)nc3)nn2-c2ccccc2)[C@H](c2cccc(F)c2)C1 (stereo partly drawn) [CPD-003, 1-(3-(2-(4-((2-(2,6-dioxopiperidin-3-yl)-1,3-dioxoisoindolin-4-yl)glycyl)piperazin-1-yl)pyrimidin-5-yl)-4-methyl-1-phenyl-1H-pyrazol-5-yl)-3-((3S,4R)-4-(3-fluorophenyl)-1-(2-methoxyethyl)pyrrolidin-3-yl)urea] | 5.1 | inhibited the viability
50 to 800 | 50 to 800 | COCCN1C[C@@H](NC(=O)Nc2c(C)c(-c3cnc(N4CCN(C(=O)CCCNc5cccc6c5C(=O)N(C5CCC(=O)NC5=O)C6=O)CC4)nc3)nn2-c2ccccc2)[C@H](c2cccc(F)c2)C1 (stereo partly drawn) [CPD-004, 1-(3-(2-(4-(4-((2-(2,6-dioxopiperidin-3-yl)-1,3-dioxoisoindolin-4-yl)amino)butanoyl)piperazin-1-yl)pyrimidin-5-yl)-4-methyl-1-phenyl-1H-pyrazol-5-yl)-3-((3S,4R)-4-(3-fluorophenyl)-1-(2-methoxyethyl)pyrrolidin-3-yl)urea] | 25.8 | 
> 80 | > 80 | COCCN1C[C@@H](NC(=O)Nc2c(C)c(-c3cnc(N4CCN(C(=O)CCCCCNc5cccc6c5C(=O)N(C5CCC(=O)NC5=O)C6=O)CC4)nc3)nn2-c2ccccc2)[C@H](c2cccc(F)c2)C1 (stereo partly drawn) [CPD-007, 1-(3-(2-(4-(6-((2-(2,6-dioxopiperidin-3-yl)-1,3-dioxoisoindolin-4-yl)amino)hexanoyl)piperazin-1-yl)pyrimidin-5-yl)-4-methyl-1-phenyl-1H-pyrazol-5-yl)-3-((3S,4R)-4-(3-fluorophenyl)-1-(2-methoxyethyl)pyrrolidin-3-yl)urea] | 10.6 | 
> 80 | > 80 | COCCN1C[C@@H](NC(=O)Nc2c(C)c(-c3cnc(N4CCN(C(=O)CCCCCCCNc5cccc6c5C(=O)N(C5CCC(=O)NC5=O)C6=O)CC4)nc3)nn2-c2ccccc2)[C@H](c2cccc(F)c2)C1 (stereo partly drawn) [CPD-009, 1-(3-(2-(4-(8-((2-(2,6-dioxopiperidin-3-yl)-1,3-dioxoisoindolin-4-yl)amino)octanoyl)piperazin-1-yl)pyrimidin-5-yl)-4-methyl-1-phenyl-1H-pyrazol-5-yl)-3-((3S,4R)-4-(3-fluorophenyl)-1-(2-methoxyethyl)pyrrolidin-3-yl)urea] | 13.6 | 

The next lines start with the compound.

Structure (SMILES) | inhibition at 0.01 µM [2] [%] | inhibition at 0.1 µM [2] [%] | IC50 [1] [nM] | viability of KM12 cells [1]
COCCN1C[C@@H](NC(=O)Nc2c(C)c(-c3cnc(N4CCN(C(=O)CCOCCOCCOCCOCCOCCNC(=O)C[C@H](NC(=O)[C@@H]5C[C@@H](O)CN5C(=O)[C@@H](NC(=O)C5(F)CC5)C(C)(C)C)c5ccc(-c6scnc6C)cc5)CC4)nc3)nn2-c2ccccc2)[C@H](c2cccc(F)c2)C1 [CPD-001, (2S,4R)-1-((S)-2-(1-fluorocyclopropane-1-carboxamido)-3,3-dimethylbutanoyl)-N-((S)-22-(4-(5-(5-(3-((3S,4R)-4-(3-fluorophenyl)-1-(2-methoxyethyl)pyrrolidin-3-yl)ureido)-4-methyl-1-phenyl-1H-pyrazol-3-yl)pyrimidin-2-yl)piperazin-1-yl)-1-(4-(4-methylthiazol-5-yl)phenyl)-3,22-dioxo-7,10,13,16,19-pentaoxa-4-azadocosyl)-4-hydroxypyrrolidine-2-carboxamide] |  |  | 518 | 
COCCN1C[C@@H](NC(=O)Nc2c(C)c(-c3cnc(N4CCN(C(=O)CCCNc5ccc6c(c5)C(=O)N(C5CCC(=O)NC5=O)C6=O)CC4)nc3)nn2-c2ccccc2)[C@H](c2cccc(F)c2)C1 (stereo partly drawn) [CPD-002, 1-(3-(2-(4-(4-((2-(2,6-dioxopiperidin-3-yl)-1,3-dioxoisoindolin-5-yl)amino)butanoyl)piperazin-1-yl)pyrimidin-5-yl)-4-methyl-1-phenyl-1H-pyrazol-5-yl)-3-((3S,4R)-4-(3-fluorophenyl)-1-(2-methoxyethyl)pyrrolidin-3-yl)urea] | > 80 | > 80 | 9.7 | inhibited the viability
COCCN1C[C@@H](NC(=O)Nc2c(C)c(-c3cnc(N4CCN(C(=O)CCOCCOCCOCCNc5cccc6c5C(=O)N(C5CCC(=O)NC5=O)C6=O)CC4)nc3)nn2-c2ccccc2)[C@H](c2cccc(F)c2)C1 (stereo partly drawn) [CPD-005, 1-(3-(2-(4-(3-(2-(2-(2-((2-(2,6-dioxopiperidin-3-yl)-1,3-dioxoisoindolin-4-yl)amino)ethoxy)ethoxy)ethoxy)propanoyl)piperazin-1-yl)pyrimidin-5-yl)-4-methyl-1-phenyl-1H-pyrazol-5-yl)-3-((3S,4R)-4-(3-fluorophenyl)-1-(2-methoxyethyl)pyrrolidin-3-yl)urea] | > 80 | > 80 | 47.3 | 
COCCN1C[C@@H](NC(=O)Nc2c(C)c(-c3cnc(N4CCN(C(=O)CCCCCCCNc5ccc6c(c5)C(=O)N(C5CCC(=O)NC5=O)C6=O)CC4)nc3)nn2-c2ccccc2)[C@H](c2cccc(F)c2)C1 (stereo partly drawn) [CPD-006, 1-(3-(2-(4-(8-((2-(2,6-dioxopiperidin-3-yl)-1,3-dioxoisoindolin-5-yl)amino)octanoyl)piperazin-1-yl)pyrimidin-5-yl)-4-methyl-1-phenyl-1H-pyrazol-5-yl)-3-((3S,4R)-4-(3-fluorophenyl)-1-(2-methoxyethyl)pyrrolidin-3-yl)urea] | > 80 | > 80 | 10.3 | 
COCCN1C[C@@H](NC(=O)Nc2c(C)c(-c3cnc(N4CCN(C(=O)CCCCCNc5ccc6c(c5)C(=O)N(C5CCC(=O)NC5=O)C6=O)CC4)nc3)nn2-c2ccccc2)[C@H](c2cccc(F)c2)C1 (stereo partly drawn) [CPD-008, 1-(3-(2-(4-(6-((2-(2,6-dioxopiperidin-3-yl)-1,3-dioxoisoindolin-5-yl)amino)hexanoyl)piperazin-1-yl)pyrimidin-5-yl)-4-methyl-1-phenyl-1H-pyrazol-5-yl)-3-((3S,4R)-4-(3-fluorophenyl)-1-(2-methoxyethyl)pyrrolidin-3-yl)urea] | > 80 | > 80 | 10.6 | 
COCCN1C[C@@H](NC(=O)Nc2c(C)c(-c3cnc(N4CCN(C(=O)CCOCCOCCOCCOCCNc5cccc6c5C(=O)N(C5CCC(=O)NC5=O)C6=O)CC4)nc3)nn2-c2ccccc2)[C@H](c2cccc(F)c2)C1 (stereo partly drawn) [CPD-010, 1-(3-(2-(4-(1-((2-(2,6-dioxopiperidin-3-yl)-1,3-dioxoisoindolin-4-yl)amino)-3,6,9,12-tetraoxapentadecan-15-oyl)piperazin-1-yl)pyrimidin-5-yl)-4-methyl-1-phenyl-1H-pyrazol-5-yl)-3-((3S,4R)-4-(3-fluorophenyl)-1-(2-methoxyethyl)pyrrolidin-3-yl)urea] | 50 to 800 | > 80 | 86.1 | 
COCCN1C[C@@H](NC(=O)Nc2c(C)c(-c3cnc(N4CCN(C(=O)CNC(=O)C[C@H](NC(=O)[C@@H]5C[C@@H](O)CN5C(=O)[C@@H](NC(=O)C5(F)CC5)C(C)(C)C)c5ccc(-c6scnc6C)cc5)CC4)nc3)nn2-c2ccccc2)[C@H](c2cccc(F)c2)C1 [CPD-011, (2S,4R)-1-((S)-2-(1-fluorocyclopropane-1-carboxamido)-3,3-dimethylbutanoyl)-N-((S)-3-((2-(4-(5-(5-(3-((3S,4R)-4-(3-fluorophenyl)-1-(2-methoxyethyl)pyrrolidin-3-yl)ureido)-4-methyl-1-phenyl-1H-pyrazol-3-yl)pyrimidin-2-yl)piperazin-1-yl)-2-oxoethyl)amino)-1-(4-(4-methylthiazol-5-yl)phenyl)-3-oxopropyl)-4-hydroxypyrrolidine-2-carboxamide] | < 50 | 50 to 800 | 119 | 
